Measurements published in US10457703B2, “Bile acid derivatives as FXR/TGR5 agonists and methods of use thereof” (ENANTA PHARMACEUTICALS, INC., priority 2015, dated 2019).

Target: human FXR (NR1H4) (Homo sapiens (Human), UniProt Q96RI1)
Experiment: Human FXR (NR1H4) Assay (Gal4 promoter driven luciferase reporter, Indigo Bioscience kit);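 on Efficacy (%): 100% equals the efficacy of CDCA; efficacy normalized to CDCA set as 100%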
Type: cell-based
Details: for EC50: Human FXR (NR1H4) Assay, potency ranges; for Emax: read-out: Efficacy (%)
From the text: ASSAYS Human FXR (NR1H4) Assay
Determination of a ligand mediated Gal4 promoter driven transactivation to quantify ligand binding mediated activation of FXR. FXR Reporter Assay kit purchased from Indigo Bioscience (Catalogue number: IB00601) to determine the potency and efficacy of compound developed by Enanta that can induce FXR activation. The principle application of this reporter assay system is to quantify functional activity of human FXR. The assay utilizes non-human mammalian cells, CHO (Chinese hamster ovary) cells engineered to express human NR1H4 protein (referred to as FXR). Reporter cells also incorporate the cDNA encoding beetle luciferase which catalyzes the substrates and yields photon emission. Luminescence intensity of the reaction is quantified using a plate-reading luminometer, Envision. Reporter Cells include the luciferase reporter gene functionally linked to an FXR responsive promoter. Thus, quantifying changes in luciferase expression in the treated reporter cells provides a sensitive surrogate measure of the changes in FXR activity. […] The assay is according to the manufacturer's instructions. In brief, the assay was performed in white, 96 well plates using final volume of 100 uL containing cells with different doses of compounds. Retrieve Reporter Cells from −80° C. storage. Perform a rapid thaw of the frozen cells by transferring a 10 ml volume of 37° C. cell recovery medium into the tube of frozen cells. Recap the tube of Reporter Cells and immediately place it in a 37° C. water bath for 5-10 minutes. Retrieve the tube of Reporter Cell Suspension from the water bath. Sanitize the outside surface of the tube with a 70% alcohol swab, and then transfer it into the cell culture hood. Dispense 90 μl of cell suspension into each well of the 96-well Assay Plate. Transfer the plate into 37° C. incubator, allowing the cells adherent to the bottom of the well. Dilute compounds in Dilution Plate (DP), and administrate to cells at Assay Plate (AP). DMSO content of the samples was kept at 0.2%. Cells were incubated for additional 22 hours before luciferase activities were measured. Thirty minutes before intending to quantify FXR activity, remove Detection Substrate and Detection Buffer from the refrigerator and place them in a low-light area so that they may equilibrate to room temperature. Remove the plate's lid and discard all media contents by ejecting it into an appropriate waste container. Gently tap the inverted plate onto a clean absorbent paper towel to remove residual droplets. Cells will remain tightly adhered to well bottoms. Add 100 μl of luciferase detection reagent to each well of the assay plate. Allow the assay plate to rest at room temperature for at least 5 minutes following the addition of LDR. Set the instrument (Envision) to perform a single 5 second “plate shake” prior to reading the first assay well. Read time may be 0.5 second (500 mSec) per well.

Chain of human FXR (NR1H4) (Q96RI1 whole entry, the tested form may be a part): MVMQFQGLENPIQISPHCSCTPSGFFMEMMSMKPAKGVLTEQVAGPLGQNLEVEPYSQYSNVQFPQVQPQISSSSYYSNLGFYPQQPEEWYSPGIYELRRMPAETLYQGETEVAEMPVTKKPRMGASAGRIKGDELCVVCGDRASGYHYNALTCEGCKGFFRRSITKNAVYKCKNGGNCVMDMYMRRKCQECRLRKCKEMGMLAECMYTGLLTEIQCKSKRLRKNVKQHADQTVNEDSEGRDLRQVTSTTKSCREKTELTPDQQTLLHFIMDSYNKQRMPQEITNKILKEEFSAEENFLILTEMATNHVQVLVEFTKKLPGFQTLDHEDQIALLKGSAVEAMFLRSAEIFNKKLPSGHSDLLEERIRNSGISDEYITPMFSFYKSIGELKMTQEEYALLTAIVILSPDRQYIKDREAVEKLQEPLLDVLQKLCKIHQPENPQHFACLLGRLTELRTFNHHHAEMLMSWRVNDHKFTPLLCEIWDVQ

| Compound | EC50 [nM] | Emax [%] |
| --- | --- | --- |
| CC[C@H]1[C@@H](O)[C@@H]2[C@H](CC[C@]3(C)[C@@H]([C@H](C)CCOC(=O)NS(=O)(=O)N4CC(C)(C)C4)CC[C@@H]23)[C@@]2(C)CC[C@@H](O)C[C@@H]12 [Example 104-g] | < 100 | 289 |
| CC[C@H]1[C@@H](O)[C@@H]2[C@H](CC[C@]3(C)[C@@H]([C@H](C)CCCOC(=O)N4CCOCC4)CC[C@@H]23)[C@@]2(C)CC[C@@H](O)C[C@@H]12 [Example 130] | 1000 to 10000 | 256 |
| CC[C@H]1[C@@H](O)[C@@H]2[C@H](CC[C@]3(C)[C@@H]([C@H](C)CCOC(=O)NS(=O)(=O)c4ccc(C(C)(C)CO)cc4)CC[C@@H]23)[C@@]2(C)CC[C@@H](O)C[C@@H]12 [Example 70] | < 100 | 333 |
| CC[C@H]1[C@@H](O)[C@@H]2[C@H](CC[C@]3(C)[C@@H]([C@H](C)CCOC(=O)NS(=O)(=O)N4CCCC4)CC[C@@H]23)[C@@]2(C)CC[C@@H](O)C[C@@H]12 [Example 51] | < 100 | 218 |
| CC[C@H]1[C@@H](O)[C@@H]2[C@H](CC[C@]3(C)[C@@H]([C@H](C)CCOC(=O)N4CC(CO)C4)CC[C@@H]23)[C@@]2(C)CC[C@@H](O)C[C@@H]12 [Example 214] | < 100 | 194 |
| CC[C@H]1[C@@H](O)[C@@H]2[C@H](CC[C@]3(C)[C@@H]([C@H](C)CCOC(=O)NCC(C)C)CC[C@@H]23)[C@@]2(C)CC[C@@H](O)C[C@@H]12 [Example 137] | 100 to 1000 | 270 |
| CC[C@H]1[C@@H](O)[C@@H]2[C@H](CC[C@]3(C)[C@@H]([C@H](C)COC(=O)NS(=O)(=O)c4ccc(-c5ncccn5)cc4)CC[C@@H]23)[C@@]2(C)CC[C@@H](O)C[C@@H]12 [Example 36] | < 100 | 205 |
| CC[C@H]1[C@@H](O)[C@@H]2[C@H](CC[C@]3(C)[C@@H]([C@H](C)COC(=O)NS(=O)(=O)c4cccc(O)c4)CC[C@@H]23)[C@@]2(C)CC[C@@H](O)C[C@@H]12 [Example 38] | 100 to 1000 | 203 |
| CC[C@H]1[C@@H](O)[C@@H]2[C@H](CC[C@]3(C)[C@@H]([C@H](C)CCOC(=O)NS(=O)(=O)c4ccc(C)cc4)CC[C@@H]23)[C@@]2(C)CC[C@@H](O)C[C@@H]12 [Example 104-b] | < 100 | 363 |
| CC[C@H]1[C@@H](O)[C@@H]2[C@H](CC[C@]3(C)[C@@H]([C@H](C)CCOC(=O)N[C@H](C)CCO)CC[C@@H]23)[C@@]2(C)CC[C@@H](O)C[C@@H]12 [Example 172] | 100 to 1000 | 201 |
| CC[C@H]1[C@@H](O)[C@@H]2[C@H](CC[C@]3(C)[C@@H]([C@H](C)CCOC(=O)NS(=O)(=O)c4ccc(OC)c(OC)c4)CC[C@@H]23)[C@@]2(C)CC[C@@H](O)C[C@@H]12 [Example 87] | 100 to 1000 | 274 |
| CC[C@H]1[C@@H](O)[C@@H]2[C@H](CC[C@]3(C)[C@@H]([C@H](C)CCCOC(=O)NS(=O)(=O)c4ccc5ccccc5c4)CC[C@@H]23)[C@@]2(C)CC[C@@H](O)C[C@@H]12 [Example 115] | 100 to 1000 | 376 |
| CC[C@H]1[C@@H](O)[C@@H]2[C@H](CC[C@]3(C)[C@@H]([C@H](C)COC(=O)NS(=O)(=O)c4ccc(N5CCOCC5)nc4)CC[C@@H]23)[C@@]2(C)CC[C@@H](O)C[C@@H]12 [Example 15] | < 100 | 197 |
| CC[C@H]1[C@@H](O)[C@@H]2[C@H](CC[C@]3(C)[C@@H]([C@H](C)CCOC(=O)NS(=O)(=O)c4ccc(C(C)(C)C)s4)CC[C@@H]23)[C@@]2(C)CC[C@@H](O)C[C@@H]12 [Example 62] | < 100 | 299 |
| CC[C@H]1[C@@H](O)[C@@H]2[C@H](CC[C@]3(C)[C@@H]([C@H](C)CCOC(=O)NS(=O)(=O)C4CCC4)CC[C@@H]23)[C@@]2(C)CC[C@@H](O)C[C@@H]12 [Example 104-i] | < 100 | 314 |
| CC[C@H]1[C@@H](O)[C@@H]2[C@H](CC[C@]3(C)[C@@H]([C@H](C)CCOC(=O)Nc4cncc(Cl)c4)CC[C@@H]23)[C@@]2(C)CC[C@@H](O)C[C@@H]12 [Example 194] | 1000 to 10000 | 170 |

| Compound | EC50 [nM] | Emax [%] |
| --- | --- | --- |
| CC[C@H]1[C@@H](O)[C@@H]2[C@H](CC[C@]3(C)[C@@H]([C@H](C)CCOC(=O)NC4CC4)CC[C@@H]23)[C@@]2(C)CC[C@@H](O)C[C@@H]12 [Example 123] | < 100 | 379 |
| CC[C@H]1[C@@H](O)[C@@H]2[C@H](CC[C@]3(C)[C@@H]([C@H](C)CCOC(=O)NS(=O)(=O)c4ccccc4)CC[C@@H]23)[C@@]2(C)CC[C@@H](O)C[C@@H]12 [Example 60] | < 100 | 309 |
| CC[C@H]1[C@@H](O)[C@@H]2[C@H](CC[C@]3(C)[C@@H]([C@H](C)COC(=O)NS(=O)(=O)c4ccc(-n5ccnc5)cc4)CC[C@@H]23)[C@@]2(C)CC[C@@H](O)C[C@@H]12 [Example 44-h] | 100 to 1000 | 194 |
| CC[C@H]1[C@@H](O)[C@@H]2[C@H](CC[C@]3(C)[C@@H]([C@H](C)COC(=O)NS(=O)(=O)c4ccc(-n5ccnn5)cc4)CC[C@@H]23)[C@@]2(C)CC[C@@H](O)C[C@@H]12 [Example 44-g] | < 100 | 209 |
| CC[C@H]1[C@@H](O)[C@@H]2[C@H](CC[C@]3(C)[C@@H]([C@H](C)CCOC(=O)NS(=O)(=O)c4cccc(OC(F)(F)F)c4)CC[C@@H]23)[C@@]2(C)CC[C@@H](O)C[C@@H]12 [Example 63] | < 100 | 396 |
| CC[C@H]1[C@@H](O)[C@@H]2[C@H](CC[C@]3(C)[C@@H]([C@H](C)CCOC(=O)NC4CCCCC4)CC[C@@H]23)[C@@]2(C)CC[C@@H](O)C[C@@H]12 [Example 127] | 100 to 1000 | 308 |
| CC[C@H]1[C@@H](O)[C@@H]2[C@H](CC[C@]3(C)[C@@H]([C@H](C)CCOC(=O)N[C@H](C(=O)O)C(C)C)CC[C@@H]23)[C@@]2(C)CC[C@@H](O)C[C@@H]12 [Example 155] | 100 to 1000 | 278 |
| CC[C@H]1[C@@H](O)[C@@H]2[C@H](CC[C@]3(C)[C@@H]([C@H](C)COC(=O)NS(=O)(=O)c4ccc(C)cc4)CC[C@@H]23)[C@@]2(C)CC[C@@H](O)C[C@@H]12 [Example 5] | 100 to 1000 | 85 |
| CC[C@H]1[C@@H](O)[C@@H]2[C@H](CC[C@]3(C)[C@@H]([C@H](C)CCOC(=O)N4CC[C@H](O)C4)CC[C@@H]23)[C@@]2(C)CC[C@@H](O)C[C@@H]12 [Example 181] | < 100 | 382 |
| CC[C@H]1[C@@H](O)[C@@H]2[C@H](CC[C@]3(C)[C@@H]([C@H](C)CCOC(=O)N4CCC(C)(CO)CC4)CC[C@@H]23)[C@@]2(C)CC[C@@H](O)C[C@@H]12 [Example 213] | < 100 | 460 |
| CCOC(=O)C1CCN(C(=O)OCC[C@@H](C)[C@H]2CC[C@H]3[C@@H]4[C@H](O)[C@H](CC)[C@@H]5C[C@H](O)CC[C@]5(C)[C@H]4CC[C@]23C)CC1 [Example 145] | 1000 to 10000 | 247 |
| CC[C@H]1[C@@H](O)[C@@H]2[C@H](CC[C@]3(C)[C@@H]([C@H](C)CCOC(=O)NS(=O)(=O)c4ccc5ccsc5c4)CC[C@@H]23)[C@@]2(C)CC[C@@H](O)C[C@@H]12 [Example 104-f] | < 100 | 213 |
| CC[C@H]1[C@@H](O)[C@@H]2[C@H](CC[C@]3(C)[C@@H]([C@H](C)CCOC(=O)NS(=O)(=O)c4ccc(F)c(F)c4)CC[C@@H]23)[C@@]2(C)CC[C@@H](O)C[C@@H]12 [Example 102] | < 100 | 235 |
| CC[C@H]1[C@@H](O)[C@@H]2[C@H](CC[C@]3(C)[C@@H]([C@H](C)CCOC(=O)NS(=O)(=O)N4CCCCC4)CC[C@@H]23)[C@@]2(C)CC[C@@H](O)C[C@@H]12 [Example 69] | < 100 | 368 |
| CC[C@H]1[C@@H](O)[C@@H]2[C@H](CC[C@]3(C)[C@@H]([C@H](C)CCCOC(=O)N4CCCC4)CC[C@@H]23)[C@@]2(C)CC[C@@H](O)C[C@@H]12 [Example 131] | 100 to 1000 | 202 |
